Source: patent US12281119B2, “Imidazo[2,1-f][1,2,4]triazin-4-amine derivatives as TLR7 agonist” (BEIGENE, LTD., priority 2019, dated 2025)
pEC50: −log10 of the molar value.

Target: T1, human TLR7 (Homo sapiens, UniProt Q9NYK1)
T1 sequence (Q9NYK1 27-1049): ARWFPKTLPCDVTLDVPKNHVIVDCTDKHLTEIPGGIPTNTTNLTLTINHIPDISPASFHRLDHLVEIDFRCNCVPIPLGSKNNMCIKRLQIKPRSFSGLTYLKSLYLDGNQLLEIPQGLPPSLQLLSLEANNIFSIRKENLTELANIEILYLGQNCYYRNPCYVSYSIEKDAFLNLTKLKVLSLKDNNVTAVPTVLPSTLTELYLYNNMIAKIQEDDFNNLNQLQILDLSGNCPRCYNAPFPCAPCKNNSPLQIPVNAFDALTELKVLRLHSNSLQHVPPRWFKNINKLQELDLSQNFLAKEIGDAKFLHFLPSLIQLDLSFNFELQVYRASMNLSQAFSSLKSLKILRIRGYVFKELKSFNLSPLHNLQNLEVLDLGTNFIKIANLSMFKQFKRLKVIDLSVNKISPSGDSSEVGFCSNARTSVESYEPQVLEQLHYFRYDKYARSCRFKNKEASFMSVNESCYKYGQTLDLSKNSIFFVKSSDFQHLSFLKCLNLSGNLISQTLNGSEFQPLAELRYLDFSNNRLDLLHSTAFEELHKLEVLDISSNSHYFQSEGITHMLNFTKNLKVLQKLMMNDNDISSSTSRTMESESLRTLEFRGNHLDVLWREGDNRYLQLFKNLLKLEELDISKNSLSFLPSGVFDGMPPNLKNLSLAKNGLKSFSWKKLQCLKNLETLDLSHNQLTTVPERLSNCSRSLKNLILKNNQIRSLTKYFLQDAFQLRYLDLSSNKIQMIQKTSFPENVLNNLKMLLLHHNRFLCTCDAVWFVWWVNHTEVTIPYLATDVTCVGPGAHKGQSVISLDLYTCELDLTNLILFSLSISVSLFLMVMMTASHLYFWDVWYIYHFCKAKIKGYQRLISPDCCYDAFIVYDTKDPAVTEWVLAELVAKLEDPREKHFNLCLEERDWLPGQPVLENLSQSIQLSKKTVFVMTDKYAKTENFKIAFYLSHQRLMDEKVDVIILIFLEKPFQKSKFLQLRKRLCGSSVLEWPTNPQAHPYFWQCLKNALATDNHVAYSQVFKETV
Experiment: HEK293-Blue hTLR7 reporter assay (QUANTI-BLUE, SEAP readout)
Format: cell-based
Parameters: host or cells: HEK293 (HEK-Blue-hTLR7)
Details: HEK-Blue-hTLR7 cells, QUANTI-BLUE assay (A1-A76), 24 hrs
Experimental: HEK293-Blue hTLR7 Reporter Assay:
HEK-Blue-hTLR7 cell line (Invivogen, Cat. No. hkb-htlr7) was designed so that the expression of the secreted embryonic alkaline phosphatase (SEAP) was induced by activating NF-κ and AP-1 via stimulating human TLR7 with TLR7 agonists.
HEK-Blue-hTLR7 cells were seeded at a density of 4×10^4 cells/well in a volume of 180 μL in a 96-well plate in DMEM (Cat. No. 11965-092) supplemented with 10% (v/v) heat-inactivated fetal bovine serum (FBS) (Gibco, 10099-1441), 100 U/ml penicillin and 100 μg/ml streptomycin (Gibco, 15140122) containing […], […] and 10% (v/v) heat-inactivated fetal bovine serum. The cells were settled for 5 hrs, then treated with increasing amounts of tested compounds at 37° C. for 24 hrs. Then 20 μL of the supernatant from each well was incubated with 180 uL Quanti-blue substrate solution at 37° C. for 10-30 mins before the activity of the SEAP was determined at 620-655 nm using a spectrophotometer. The EC50 value for each compound was calculated with GraphPad Prism software using the sigmoidal dose-response function.

`CCCCOc1nc(N)c2ncc(C(O)c3cc(OC)ccn3)n2n1` (stereo not drawn) [Compound A73, (4-amino-2-butoxyimidazo[2,1-f][1,2,4]triazin-7-yl)(4-methoxypyridin-2-yl)methanol] and `CCCCOc1nc(N)c2ncc(C(O)c3ncccc3OC)n2n1` (stereo not drawn) [Compound A56, (4-amino-2-butoxyimidazo[2,1-f][1,2,4]triazin-7-yl)(3-methoxypyridin-2-yl)methanol] cannot be ordered by pEC50: < 5.00 for the first, < 5.00 for the second.

Compared with `CCCCOc1nc(N)c2ncc(Cc3ccc(CN4C[C@@H]5C[C@H]4CN5)cc3)n2n1` [Compound A41, 7-(4-(((1S,4S)-2,5-diazabicyclo[2.2.1]heptan-2-yl)methyl)benzyl)-2-butoxyimidazo[2,1-f][1,2,4]triazin-4-amine], `CCCCOc1nc(N)c2ncc(Cc3ccc(CN)cc3)n2n1` [Compound A46, 7-(4-(aminomethyl)benzyl)-2-butoxyimidazo[2,1-f][1,2,4]triazin-4-amine] is lower in pEC50: 5.80 for the first, < 5.00 for the second. The first is the more potent here.

`CCCCOc1nc(N)c2ncc(Cc3ccc(CN4CCCCC4)cc3)n2n1` [Compound A5, 2-butoxy-7-(4-(piperidin-1-ylmethyl)benzyl)imidazo[2,1-f][1,2,4]triazin-4-amine] and `CCCCOc1nc(N)c2ncc(Cc3ccc(CCN4CCCC4)cc3)n2n1` [Compound A42, 2-butoxy-7-(4-(2-(pyrrolidin-1-yl)ethyl)benzyl)imidazo[2,1-f][1,2,4]triazin-4-amine] are within 0.2 log units of each other in pEC50: 5.90 for the first, 5.86 for the second.

`Nc1nc(OCc2cccnc2)nn2c(Cc3ccc(CN4CCCC4)cc3)cnc12` [Compound A68, 2-(pyridin-3-ylmethoxy)-7-(4-(pyrrolidin-1-ylmethyl)benzyl)imidazo[2,1-f][1,2,4]triazin-4-amine] and `Cc1cc(COc2nc(N)c3ncc(Cc4ccc(CN5CCCC5)cc4)n3n2)no1` [Compound A48, 2-((5-methylisoxazol-3-yl)methoxy)-7-(4-(pyrrolidin-1-ylmethyl)benzyl)imidazo[2,1-f][1,2,4]triazin-4-amine] cannot be ordered by pEC50: < 5.00 for the first, < 5.00 for the second.

Going from `CCCCOc1nc(N)c2ncc(Cc3ccc(OC4C[C@H]5CC[C@@H](C4)N5CC)cc3F)n2n1` (stereo partly drawn) [Compound A49, 2-butoxy-7-(4-(((1R,5S)-8-ethyl-8-azabicyclo[3.2.1]octan-3-yl)oxy)-2-fluorobenzyl)imidazo[2,1-f][1,2,4]triazin-4-amine] to `CCCCOc1nc(N)c2ncc(Cc3ccc(OCCCN(C)C)cc3F)n2n1` [Compound A36, 2-butoxy-7-(4-(3-(dimethylamino)propoxy)-2-fluorobenzyl)imidazo[2,1-f][1,2,4]triazin-4-amine], the pEC50 rises from 5.36 to 6.06 (0.70 log units). The second is the more potent here.

Compared with `CCCCOc1nc(N)c2ncc(Cc3cccc(OCCCN(C)C)c3)n2n1` [Compound A23, 2-butoxy-7-(3-(3(dimethylamino)propoxy)benzyl)imidazo[2,1-f][1,2,4]triazin-4-amine], `CCCCOc1nc(N)c2ncc(Cc3ccc(OCCCN(C)C)c(F)c3)n2n1` [Compound A35, 2-butoxy-7-(4-(3-(dimethylamino)propoxy)-3-fluorobenzyl)imidazo[2,1-f][1,2,4]triazin-4-amine] is higher in pEC50: < 5.00 for the first, 5.68 for the second. The second is the more potent here.

Compared with `CCCCOc1nc(N)c2ncc(Cc3cnc(OCCCN(C)C)c(Cl)c3)n2n1` [Compound A34, 2-butoxy-7-((5-chloro-6-(3-(dimethylamino)propoxy)pyridin-3-yl)methyl)imidazo[2,1-f][1,2,4]triazin-4-amine], `CCCCOc1nc(N)c2ncc(Cc3ccc(OCCN(C)C(C)=O)nc3)n2n1` [Compound A59, N-(2-((5-((4-amino-2-butoxyimidazo[2,1-f][1,2,4]triazin-7-yl)methyl)pyridin-2-yl)oxy)ethyl)-N-methylacetamide] is lower in pEC50: 5.47 for the first, < 5.00 for the second. The first is the more potent here.

First: CCCCOc1nc(N)c2ncc(Cc3ccc(OCCCN(CC)CC)cc3)n2n1 [Compound A29, 2-butoxy-7-(4-(3-(diethylamino)propoxy)benzyl)imidazo[2,1-f][1,2,4]triazin-4-amine]
Second: CCCCOc1nc(N)c2ncc(Cc3ccc(OCCCN)cc3)n2n1 [Compound A31, 7-(4-(3-aminopropoxy)benzyl)-2-butoxyimidazo[2,1-f][1,2,4]triazin-4-amine]
The pEC50 of the first is higher: 5.58 for the first, < 5.00 for the second. The first is the more potent here.

`CCCCOc1nc(N)c2ncc(Cc3ccc(OCCN)nc3)n2n1` [Compound A37, 7-((6-(2-aminoethoxy)pyridin-3-yl)methyl)-2-butoxyimidazo[2,1-f][1,2,4]triazin-4-amine] and `CCCCOc1nc(N)c2ncc(Cc3cccc(OC)n3)n2n1` [Compound A51, 2-butoxy-7-((6-methoxypyridin-2-yl)methyl)imidazo[2,1-f][1,2,4]triazin-4-amine] cannot be ordered by pEC50: < 5.00 for the first, < 5.00 for the second.

`CCCCOc1nc(N)c2ncc(Cc3ccccc3CN3CCOCC3)n2n1` [Compound A14, 2-butoxy-7-(2-(morpholinomethyl)benzyl)imidazo[2,1-f][1,2,4]triazin-4-amine] and `CCCCOc1nc(N)c2ncc(Cc3ccc(CN4CCC(Oc5ccccc5)CC4)cc3)n2n1` [Compound A47, 2-butoxy-7-(4-((4-phenoxypiperidin-1-yl)methyl)benzyl)imidazo[2,1-f][1,2,4]triazin-4-amine] cannot be ordered by pEC50: < 5.00 for the first, < 5.00 for the second.

`CCCCOc1nc(N)c2ncc(Cc3cccc(-c4ccc(CN5CCCC5)cc4)c3)n2n1` [Compound A25, 2-butoxy-7-((4′-(pyrrolidin-1-ylmethyl)-[1,1′-biphenyl]-3-yl)methyl)imidazo[2,1-f][1,2,4]triazin-4-amine] and `COCCOc1nc(N)c2ncc(Cc3cccc(CN4CCCC4)c3)n2n1` [Compound A17, 2-(2-methoxyethoxy)-7-(3-(pyrrolidin-1-ylmethyl)benzyl)imidazo[2,1-f][1,2,4]triazin-4-amine] cannot be ordered by pEC50: < 5.00 for the first, < 5.00 for the second.

`CCCCOc1nc(N)c2ncc(Cc3ccc(CC4CCNCC4)cc3)n2n1` [Compound A33, 2-butoxy-7-(4-(piperidin-4-ylmethyl)benzyl)imidazo[2,1-f][1,2,4]triazin-4-amine] and `CCCCOc1nc(N)c2ncc(Cc3ccc(CN4CCN(CCCO)CC4)cc3)n2n1` [Compound A71, 3-(4-(4-((4-amino-2-butoxyimidazo[2,1-f][1,2,4]triazin-7-yl)methyl)benzyl)piperazin-1-yl)propan-1-ol] are within 0.2 log units of each other in pEC50: 5.98 for the first, 5.93 for the second.

First: CCCCOc1nc(N)c2ncc(Cc3ccc(OCCCN4CCCC4)cc3)n2n1 [Compound A28, 2-butoxy-7-(4-(3-(pyrrolidin-1-yl)propoxy)benzyl)imidazo[2,1-f][1,2,4]triazin-4-amine]
Second: CCCCOc1nc(N)c2ncc(C(C)c3ccc(CN4CCCC4)cc3)n2n1 (stereo not drawn) [Compound A75, 2-butoxy-7-(1-(4-(pyrrolidin-1-ylmethyl)phenyl)ethyl)imidazo[2,1-f][1,2,4]triazin-4-amine]
The pEC50 of the first is higher: 5.75 for the first, < 5.00 for the second. The first is the more potent here.

`CC(C)COc1nc(N)c2ncc(Cc3cccc(CN4CCCC4)c3)n2n1` [Compound A16, 2-isobutoxy-7-(3-(pyrrolidin-1-ylmethyl)benzyl)imidazo[2,1-f][1,2,4]triazin-4-amine] and `Nc1nc(N)c2ncc(Cc3ccc(CN4CCCC4)cc3)n2n1` [Compound A52, 7-(4-(pyrrolidin-1-ylmethyl)benzyl)imidazo[2,1-f] [1,2,4]triazine-2,4-diamine] cannot be ordered by pEC50: < 5.00 for the first, < 5.00 for the second.

Same assay, conditions: HEK-Blue-hTLR7 cells, QUANTI-BLUE assay (C1-C6), 24 hrs

`CCCCOc1cc(N)c2ncc(Cc3cnc(N4CCNCC4)c(C)c3)n2n1` [Compound C5, 6-butoxy-3-((5-methyl-6-(piperazin-1-yl)pyridin-3-yl)methyl)imidazo[1,2-b]pyridazin-8-amine] and `CCCCOc1nc(N)n2ncc(Cc3cccc(CN4CCCC4)c3)c2n1` [Compound C1, 2-butoxy-8-(3-(pyrrolidin-1-ylmethyl)benzyl)pyrazolo[1,5-a][1,3,5]triazin-4-amine] cannot be ordered by pEC50: < 5.00 for the first, < 5.00 for the second.
